Assay: in vitro
Details: pH 7.4; for -k: 1 μM; for half-life at 1 μM / microsomal CLint at 1 μM: microsomes
Method: Pooled human liver microsomes (HLM; Cat #X008067 lot IHG) and pooled male Sprague Dawley rat liver microsomes (RLM; Cat #M00001 Lot NNK) were purchased from BioreclamationIVT, Baltimore, Md. NADPH (Cat #N1630, 95% HPLC) and DMSO (GC grade) were purchased from Sigma-Aldrich, Canada. Potassium phosphate buffer (100 mM) with magnesium chloride pH 7.4 was prepared freshly. […] Reactions were initiated by adding NADPH (final concentration 1 mM) in all the wells. Reactions without NADPH were also incubated (final point only) to rule out non-NADPH metabolism or chemical instability in the incubation buffer. Reactions were terminated at each time point (0, 5, 10, 20, 30, 45 and 60 min) by transferring 50 μL in a new 96 well plate and adding 100 μl of acetonitrile containing an internal standard (labetalol at 2 μM). The plates were centrifuged at 4000 rpm for 5 min, and an aliquot of supernatant was diluted with one volume of water+0.1% formic acid before analysis by LC-MS/MS. Reference samples were also prepared at concentrations between 0.002 and 2 μM in buffer containing microsomes, by adding the diluted solutions of the compound to the buffer containing microsomes quenched with 2 volume of acetonitrile containing the internal standard (whereas the incubation T0 is obtained by quenching the microsomes containing the compound, then adding NADPH). Samples were monitored for parent compound disappearance in Multi Reaction Monitoring (MRM) mode using LC-MS/MS. The peak area ratios of analyte versus internal standard compared to the calibration curve were used to calculate concentration at each time point. The elimination constant (ke, min-1) was obtained from the log-linear regression of the concentration (y) versus time (t). The half-life was calculated as T½ (min)=0.693/ke. The microsomal intrinsic clearance (Clint, μL/min/mg of protein) was calculated by the following equation: […]

In the case of O=C(NO)c1ncc(COc2ccc(F)cc2)c(CO)c1O [Compound 2, 5-(4-fluoro-phenoxymethyl)-3-hydroxy-4-hydroxymethyl-pyridine-2-carboxylic acid hydroxyamide], the “-k” value (human) is reported as 0.000703 ± 1.9e-05 min⁻¹, the half-life at 1 μM (human) is reported as 16.4 ± 0.45 h and the microsomal CLint at 1 μM (human) is reported as 1.17 ± 0.03 µL/min/mg. For the same compound, the “-k” value (male, Sprague Dawley, rat) was 0.00126 ± 0.00019 min⁻¹, the half-life at 1 μM (male, Sprague Dawley, rat) was 6.73 ± 0.467 h and the microsomal CLint at 1 μM (male, Sprague Dawley, rat) was 6.19 ± 0.42 µL/min/mg.

Source: patent US11400082B2, “Methods of treating elevated plasma cholesterol” (Montréal Heart Institute, priority 2017, dated 2022)
